{
  "source": "patent US20230338413A1",
  "about": "“ORAL DELIVERY OF HEPARINS” (GUANGZHOU DAZHOU BIOMEDICINE LTD., priority 2021, published 2023)",
  "origin": "cited, not measured here",
  "data": [
    {"compound": "O=C([O-])CCCCCCCNC(=O)c1ccccc1O.[Na+]", "note": "[SNAC, sodium N-(8-(2-hydroxybenzoyl)amino)caprylate]", "values": [
      {"measurement": "Effects on coagulation", "setting": "SNAC by itself, initial clinical studies", "value": "no effects on coagulation"},
      {"measurement": "Measurements of anticoagulation (aPTT, TFPI and anti-Factors IIa and Xa levels)", "setting": "human subjects, single oral dose: 30,000 USP Heparin Units alone or SNAC alone 1.4 to 10.5 g", "value": "did not change"}
    ]}
  ]
}
